Literature values in US10052352B2, “Therapeutic application of parenteral krill oil” (STABLE SOLUTIONS LLC, priority 2011, dated 2018).

Conditions: free acid

water solubility: highly water insoluble
SMILES: O=C(c1ccccc1)c1ccc2n1CCC2C(=O)O (stereo not shown) [ketorolac]
